Laboratory results: paper PMC4070431 (Pulmonary pharmacology & therapeutics, 2012)
Values joined by “and” are separate entries in the source; they are usually repeats but may differ in a detail not shown here. Identical values can stand only once. Like-named read-outs stand apart in the source and are kept apart here. Positions of bridges follow the written chain, without caps; N, C: chain ends. Non-standard residues stand in square brackets, D forms with d. Residues, ends and D or L forms follow the SMILES beside them. *: point of attachment. X1 = N=C(N)NCCC[C@H]1C(=O)N[C@H](C(N)=O)CN1*; dNle = CCCC[C@@H](N)C(=O)O; Heptanoyl = CCCCCCC(=O)*

Assays:
human NPR-B = target: T1, human NPR-B (Homo sapiens, UniProt P20594); experiment: cGMP generation in HEK293 cells expressing receptor; type: cell-based; conditions: for Effect on cGMP generation in hNPR-B functional assay: concentrations up to 10 µM; for Emax, cGMP generation, hNPR-B: mean ± SEM
T1 sequence (P20594 23-1047): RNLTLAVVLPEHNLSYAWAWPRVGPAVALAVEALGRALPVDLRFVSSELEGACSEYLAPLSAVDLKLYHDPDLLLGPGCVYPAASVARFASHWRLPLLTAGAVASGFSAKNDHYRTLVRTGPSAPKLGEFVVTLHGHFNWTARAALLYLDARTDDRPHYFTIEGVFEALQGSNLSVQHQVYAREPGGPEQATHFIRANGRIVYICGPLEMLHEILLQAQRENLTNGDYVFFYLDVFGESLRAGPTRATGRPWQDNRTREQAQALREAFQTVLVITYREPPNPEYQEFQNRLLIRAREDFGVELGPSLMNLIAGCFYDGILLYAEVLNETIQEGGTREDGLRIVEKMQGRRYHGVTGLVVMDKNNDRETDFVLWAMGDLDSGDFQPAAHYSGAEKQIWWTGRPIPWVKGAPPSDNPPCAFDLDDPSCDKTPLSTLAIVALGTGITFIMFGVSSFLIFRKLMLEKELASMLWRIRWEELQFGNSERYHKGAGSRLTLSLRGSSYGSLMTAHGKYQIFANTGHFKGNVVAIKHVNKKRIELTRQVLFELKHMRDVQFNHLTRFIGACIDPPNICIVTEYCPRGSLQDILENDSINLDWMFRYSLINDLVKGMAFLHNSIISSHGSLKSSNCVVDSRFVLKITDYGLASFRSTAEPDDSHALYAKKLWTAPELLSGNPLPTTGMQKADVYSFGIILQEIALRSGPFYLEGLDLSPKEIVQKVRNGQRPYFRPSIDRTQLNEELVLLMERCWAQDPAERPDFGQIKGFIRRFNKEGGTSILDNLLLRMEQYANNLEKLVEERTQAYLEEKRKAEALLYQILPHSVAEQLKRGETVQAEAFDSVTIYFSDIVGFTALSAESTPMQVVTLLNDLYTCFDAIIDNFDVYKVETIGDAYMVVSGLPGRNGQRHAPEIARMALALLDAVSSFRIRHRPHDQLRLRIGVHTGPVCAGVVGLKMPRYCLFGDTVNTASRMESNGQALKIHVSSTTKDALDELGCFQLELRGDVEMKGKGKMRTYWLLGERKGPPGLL

[1] = cited from earlier work
[2] = tested on: bronchoconstrictor response to aerosolized methacholine; experiment: Methacholine-induced bronchoconstriction in anaesthetized guinea pigs; type: in vivo, guinea pig; conditions: for Maximum inhibition of methacholine bronchoconstrictor response: 1000 µg/kg i.t., 15-min pretreatment, n = 6, mean ± SEM; for Inhibition of methacholine bronchoconstriction at 60 min: i.t., 60-min pretreatment, all doses
rat trachea = experiment: Relaxation of carbachol-precontracted rat trachea; conditions: 100 µM; carbachol 1 µM; n = 6; mean ± SEM
[3] = tested on: mean arterial blood pressure and heart rate; experiment: Cardiovascular parameters in anaesthetized guinea pigs; conditions: i.t.; PL-3994 1–1000 µg/kg, salbutamol 1000 µg/kg; n = 6
[4] = target: non-selective somatostatin receptor (sst); experiment: CEREP profiling screen and follow-up Ki; type: binding; conditions: read-out: Ki, sst; follow-up study
[5] = tested on: 75 diverse molecular targets; experiment: CEREP standard profiling screen; type: binding; conditions: 1 µM
kappa opioid receptor = experiment: CEREP profiling screen and follow-up Ki; type: binding; conditions: read-out: Ki, kappa; follow-up study

SMILES | Effect on cGMP generation in hNPR-B functional assay (human NPR-B) | Emax, cGMP generation, hNPR-B (human NPR-B) | Maximum inhibition of methacholine bronchoconstrictor response [2] | Inhibition of methacholine bronchoconstriction at 60 min [2] | Effect on heart rate compared to baseline [3] | Effect on mean arterial blood pressure compared to baseline [3] | also measured
CC[C@H](C)[C@@H]1NC(=O)[C@H](CCCNC(=N)N)NC(=O)[C@H](CC(=O)O)NC(=O)[C@H](CCSC)NC(=O)[C@H](CCCCN)NC(=O)[C@H](CCCNC(=N)N)NC(=O)CNC(=O)[C@H](Cc2ccccc2)NC(=O)[C@@H](NC(=O)CNC(=O)[C@H](CO)NC(=O)CNC(=O)[C@H](CCC(N)=O)NC(=O)[C@@H](NC(=O)[C@H](CCSC)NC(=O)[C@H](CCCCN)NC(=O)[C@@H]2CCCN2C(=O)[C@@H](N)CO)C(C)C)CSSC[C@@H](C(=O)N[C@@H](CCCCN)C(=O)N[C@H](C(=O)N[C@@H](CC(C)C)C(=O)N[C@@H](CCCNC(=N)N)C(=O)N[C@@H](CCCNC(=N)N)C(=O)N[C@@H](Cc2c[nH]cn2)C(=O)O)C(C)C)NC(=O)CNC(=O)[C@H](CC(C)C)NC(=O)CNC(=O)[C@H](CO)NC(=O)[C@H](CO)NC(=O)[C@H](CO)NC(=O)[C@H](CO)NC1=O [hBNP, brain natriuretic peptide] | no functional activity | 9 ± 1 % hCNP |  |  |  |  | 
CC[C@H](C)[C@@H]1NC(=O)[C@H](CCCNC(=N)N)NC(=O)[C@H](CC(=O)O)NC(=O)[C@H](CC(C)C)NC(=O)[C@H](CCCCN)NC(=O)[C@H](CC(C)C)NC(=O)CNC(=O)[C@H](Cc2ccccc2)NC(=O)[C@@H](NC(=O)CNC(=O)[C@H](CCCCN)NC(=O)[C@H](CO)NC(=O)[C@H](CC(C)C)NC(=O)CN)CSSC[C@@H](C(=O)O)NC(=O)CNC(=O)[C@H](CC(C)C)NC(=O)CNC(=O)[C@H](CO)NC(=O)[C@H](CCSC)NC(=O)[C@H](CO)NC(=O)CNC1=O [CNP, C-type natriuretic peptide] |  |  |  |  |  |  | Human plasma half-life ([1]; ref [10]): about 2 min
CC(C)(C)NCC(O)c1ccc(O)c(CO)c1 (stereo not drawn) [salbutamol] |  |  | 87 ± 2% and 87% | maintained | no significant effect | no significant effect | Relaxation of carbachol-precontracted rat trachea (rat trachea): 70.0 ± 10.4 % relaxation
CCCCCCC(=O)N[C@H]1CSSC[C@@H](C(=O)N[C@@H](Cc2ccc(O)cc2)C(=O)N2C[C@@H](C(N)=O)NC(=O)[C@@H]2CCCNC(=N)N)NC(=O)[C@H](CO)NC(=O)[C@H]([C@@H](C)CC)NC(=O)[C@H](CCCNC(=N)N)NC(=O)[C@H](CC(=O)O)NC(=O)[C@@H](CCCC)NC(=O)[C@H](CCCNC(=N)N)NC(=O)CNC(=O)[C@@H](C)NC(=O)[C@H](Cc2ccccc2)NC(=O)[C@H](Cc2c[nH]cn2)NC1=O [PL-3994, Hept-cyclo(Cys-His-Phe-D-Ala-Gly-Arg-D-Nle-Asp-Arg-Ile-Ser-Cys)-Tyr-[Arg-mimetic]-NH2] (Heptanoyl-CHF[dA]GR[dNle]DRISCY-X1; disulfide 1-12) | without effect |  | 70% | maintained | no significant effect | no significant effect | Ki [4]: 4.2 µM; EC50, cGMP generation, hNPR-B (human NPR-B; HEK293 cells, 0.5 mM IBMX, 15 min, cGMP HTRF): Not calculable; Inhibition of methacholine bronchoconstriction at 120 min ([2]; 10 µg/kg and 100 µg/kg i.t.): extended to 120 min post-administration, although it was reduced; Inhibition of methacholine bronchoconstriction at 240 min ([2]; 10 µg/kg and 100 µg/kg i.t., 240-min pretreatment): absent; Effect against 75 diverse molecular targets [5]: without significant effect; Ki (kappa opioid receptor): 0.88 µM
CC[C@H](C)[C@@H]1NC(=O)[C@H](CCCNC(=N)N)NC(=O)[C@H](CC(=O)O)NC(=O)[C@H](CCSC)NC(=O)[C@H](CCCNC(=N)N)NC(=O)CNC(=O)CNC(=O)[C@H](Cc2ccccc2)NC(=O)[C@@H](NC(=O)[C@H](CO)NC(=O)[C@H](CO)NC(=O)[C@H](CCCNC(=N)N)NC(=O)[C@H](CCCNC(=N)N)NC(=O)[C@H](CC(C)C)NC(=O)[C@@H](N)CO)CSSC[C@@H](C(=O)N[C@@H](CC(N)=O)C(=O)N[C@@H](CO)C(=O)N[C@@H](Cc2ccccc2)C(=O)N[C@@H](CCCNC(=N)N)C(=O)N[C@@H](Cc2ccc(O)cc2)C(=O)O)NC(=O)CNC(=O)[C@H](CC(C)C)NC(=O)CNC(=O)[C@H](CO)NC(=O)[C@H](CCC(N)=O)NC(=O)[C@H](C)NC(=O)CNC1=O [hANP, atrial natriuretic peptide] |  | 6 ± 0.8 % hCNP |  |  |  |  | Human plasma half-life ([1]; human, in vivo): about 2 min
